The source of these data is ChEMBL document CHEMBL4483862, “Open-source discovery of chemical leads for next-generation chemoprotective antimalarials” (2018).

The experiment relates to Plasmodium berghei. As to the kind of experiment: Luciferase/luciferin-expressing antifolate-resistant parasites were used to infect a culture of HepG2 cells that were pre-incubated with compounds. Infected hepatocytes emit light due to the luciferase reaction. Assay results are presented as the percent inhibition of light emission compared to control. […]. It is filed as functional. As to conditions: sporozoite; for IC90: read-out: LUCIFERASE INFECTION ASSAY - IC90.

[1] abbreviates: read-out: LUCIFERASE INFECTION ASSAY - IC50.

SMILES strings stand for the structures. A value given as a limit tells only on which side of the number the result lay.

A word on the IC50: it is the concentration at which inhibition is half-maximal. Broadly, the IC90 is the concentration at which the effect reaches the 90% level.

Regarding `C=CCN(C(=O)c1cccc(C)c1[N+](=O)[O-])c1nc2c(s1)CCCC2`, the IC90 was over 10 µM. Under “PBLUC_HILL_SLOPE 3.27, PBLUC_R_SQUARED 0.266, read-out: LUCIFERASE INFECTION ASSAY - IC50”, the IC50 worked out at 9.32 µM.
For the compound `COc1cc(OC)c(NC(=O)CN2CCC(c3c[nH]c4ccccc34)CC2)cc1Cl`, the IC90 is over 10 µM. Also, the IC50 (HEPG2TOX_HILL_SLOPE 7.32, HEPG2TOX_R_SQUARED 0.598, PBLUC_HILL_SLOPE 4.32, PBLUC_R_SQUARED 0.304, read-out: LUCIFERASE INFECTION ASSAY - IC50) amounted to 8.18 µM.
In the case of `O=C(Nc1ccc(OC(F)(F)F)cc1)c1cc([N+](=O)[O-])c[nH]c1=O`, the IC90 is over 10 µM. Moreover, the IC50 (PBLUC_HILL_SLOPE 2.36, PBLUC_R_SQUARED 0.402, read-out: LUCIFERASE INFECTION ASSAY - IC50) is 5.59 µM.
As for `COCCNC(=S)Nc1ccccc1CC(c1c[nH]c2ccccc12)c1c[nH]c2ccccc12`, the IC90 is over 10 µM. Moreover, for the setting “PBLUC_HILL_SLOPE 10.3, PBLUC_R_SQUARED 0.121, read-out: LUCIFERASE INFECTION ASSAY - IC50”, the concentration for half-maximal inhibition (IC50) was found to be 9.41 µM.
Regarding `COc1ccc(-c2nnc3ccc(-c4ccc5ncccc5c4)cn23)cc1OC`, the IC90 is 0.0668 µM. In addition, the IC50 (HEPG2TOX_HILL_SLOPE 0.239, HEPG2TOX_R_SQUARED 0.342, PBLUC_HILL_SLOPE 2.22, PBLUC_R_SQUARED 0.642, read-out: LUCIFERASE INFECTION ASSAY - IC50) was 0.0248 µM.
Regarding `COc1cccc(CC(=O)N2CCCC(C(=O)NCC3CC3)C2)c1` (configuration not stated), the IC90 is over 10 µM. Moreover, the IC50 under setting [1] was over 10 µM.
On to `C=CCN(CC(=O)NCc1ccc2c(c1)OCO2)S(=O)(=O)c1ccc(Cl)c(Cl)c1`, for which the IC90 was over 10 µM. Under setting [1], the IC50 is over 10 µM.
In the case of `Nc1ccc(-c2cnn3c(N4CCOCC4)ccnc23)cc1`, the IC90 worked out at 8.75 µM. The 50% inhibitory concentration (IC50) (FFLUC_HILL_SLOPE 1.28, FFLUC_R_SQUARED 0.893, PBLUC_HILL_SLOPE 0.747, PBLUC_R_SQUARED 0.679, read-out: LUCIFERASE INFECTION ASSAY - IC50) was 0.462 µM.
Turning to `Cn1c2ccccc2c(=O)c2c(=O)n(CCc3ccccc3)c(-c3ccco3)nc21`, the IC90 is 5.38 µM. In addition, the IC50 under setting [1] was determined as 2.64 µM.
Consider `O=C(NNc1ccc(I)cc1)c1cc(Cl)cc(Cl)c1`, for which the IC90 amounted to 2.86 µM. Besides, under “HEPG2TOX_HILL_SLOPE 2.56, HEPG2TOX_R_SQUARED 0.673, PBLUC_HILL_SLOPE 20.4, PBLUC_R_SQUARED 0.213, read-out: LUCIFERASE INFECTION ASSAY - IC50”, the IC50 turned out to be 2.56 µM.
`CCCOc1c(/C=C/C(=O)c2ccc(OCC#N)cc2)cccc1OCC`: the IC90 amounted to 9.68 µM. Besides, the IC50 (PBLUC_HILL_SLOPE 10.6, PBLUC_R_SQUARED 0.425, read-out: LUCIFERASE INFECTION ASSAY - IC50) is 7.88 µM.
`O=c1cc(C(F)(F)F)[nH]n1-c1ccc(OC(F)(F)F)cc1`: the IC90 was over 10.6 µM. Also, for the setting “HEPG2TOX_HILL_SLOPE 7.72, HEPG2TOX_R_SQUARED 0.792, PBLUC_HILL_SLOPE 12.3, PBLUC_R_SQUARED 0.186, read-out: LUCIFERASE INFECTION ASSAY - IC50”, the IC50 came out at 9.78 µM.
For `Cc1ccc(-c2nonc2NC(=O)c2sc3ccccc3c2Cl)cc1`, the IC90 stood at 6.55 µM. Also, for the setting “HEPG2TOX_HILL_SLOPE 10.3, HEPG2TOX_R_SQUARED 0.121, PBLUC_HILL_SLOPE 5.87, PBLUC_R_SQUARED 0.389, read-out: LUCIFERASE INFECTION ASSAY - IC50”, the concentration for half-maximal inhibition (IC50) worked out at 4.5 µM.
Turning to `O=c1c(Cl)c(NCC(c2ccco2)N2CCCCC2)cnn1-c1nc2ccccc2[nH]1` (configuration not stated), the IC90 was over 10 µM. For the setting “PBLUC_HILL_SLOPE 10.1, PBLUC_R_SQUARED 0.23, read-out: LUCIFERASE INFECTION ASSAY - IC50”, the concentration for half-maximal inhibition (IC50) stood at 8.87 µM.
`O=C(Nc1ccc(Cl)cc1)N1CCCN(Cc2ccc(Br)cc2F)CC1`: the IC90 is over 7.49 µM. For the same compound, where the note is “PBLUC_HILL_SLOPE 1.86, PBLUC_R_SQUARED 0.575, read-out: LUCIFERASE INFECTION ASSAY - IC50”, the half-inhibitory concentration (IC50) was determined as 2.95 µM.
`Cc1sc2ncnc(NC(C)c3ccc(-n4ccnc4)cc3)c2c1C` (configuration not stated): the IC90 was over 10 µM. The IC50 (HEPG2TOX_HILL_SLOPE 0.71, HEPG2TOX_R_SQUARED 0.913, PBLUC_HILL_SLOPE 1.13, PBLUC_R_SQUARED 0.519, read-out: LUCIFERASE INFECTION ASSAY - IC50) came out at 2.6 µM.
For the compound `CCOC(=O)c1sc2sc(C(C)=O)c(C)c2c1C`, the IC90 is over 11.7 µM. The half-inhibitory concentration (IC50) under setting [1] is over 11.7 µM.
As to `O=C(NC1CC1)c1ccc(CN(C2CC2)S(=O)(=O)c2cccs2)cc1`, the concentration for an effect of 90% (IC90) was over 10 µM. Further, the IC50 (PBLUC_HILL_SLOPE 4.12, PBLUC_R_SQUARED 0.383, read-out: LUCIFERASE INFECTION ASSAY - IC50) worked out at 7.92 µM.
Consider `CC(=O)NCc1ccc(C(=O)Nc2ccccc2O)cc1`, for which the IC90 amounted to 9.91 µM. Where the note is “PBLUC_HILL_SLOPE 1.36, PBLUC_R_SQUARED 0.725, read-out: LUCIFERASE INFECTION ASSAY - IC50”, the IC50 came to 1.97 µM.
Take `CCOC(=O)CC(=O)CSc1nnc(-c2ccccc2Cl)n1-c1ccccc1F`: the IC90 came to 0.0166 µM. For the setting “PBLUC_HILL_SLOPE 12.3, PBLUC_R_SQUARED 0.795, read-out: LUCIFERASE INFECTION ASSAY - IC50”, the IC50 turned out to be 0.0139 µM.
As to `CC(C)c1ccc(-n2c(-c3ccccc3)c[n+]3c2CCc2ccccc2-3)cc1`, the IC90 was determined as 1.23 µM. Further, under “HEPG2TOX_HILL_SLOPE 1.23, HEPG2TOX_R_SQUARED 0.988, PBLUC_HILL_SLOPE 3.39, PBLUC_R_SQUARED 0.644, read-out: LUCIFERASE INFECTION ASSAY - IC50”, the IC50 was 0.642 µM.
As to `CSc1nnc(Sc2nc(-c3cccnc3)nc3ccccc23)s1`, the IC90 is over 10 µM. In addition, the half-inhibitory concentration (IC50) under setting [1] is over 10 µM.
Turning to `COc1cccc(-c2cc(=O)[nH]c(Nc3nc(C)c4cc(C)ccc4n3)n2)c1`, the IC90 is over 8.84 µM. In addition, under “HEPG2TOX_HILL_SLOPE 0.454, HEPG2TOX_R_SQUARED 0.693, PBLUC_HILL_SLOPE 1.82, PBLUC_R_SQUARED 0.608, read-out: LUCIFERASE INFECTION ASSAY - IC50”, the IC50 was determined as 2.67 µM.
For `O=C(NC1CCN(Cc2ccccc2)CC1)N1CCN(Cc2ccc(Br)s2)CC1`, the IC90 stood at 4.35 µM. For the setting “HEPG2TOX_HILL_SLOPE 3.62, HEPG2TOX_R_SQUARED 0.356, PBLUC_HILL_SLOPE 12.1, PBLUC_R_SQUARED 0.388, read-out: LUCIFERASE INFECTION ASSAY - IC50”, the IC50 worked out at 3.62 µM.
With `COc1ccc(C(C)C)cc1-c1cnc(N)c(-c2cccc(C(F)(F)F)c2)c1`, the IC90 is over 8.54 µM. Also, the IC50 (HEPG2TOX_HILL_SLOPE 7.33, HEPG2TOX_R_SQUARED 0.431, PBLUC_HILL_SLOPE 11.3, PBLUC_R_SQUARED 0.541, read-out: LUCIFERASE INFECTION ASSAY - IC50) amounted to 8.01 µM.
Consider `CC(=O)Nc1ccc(/C=C2\COc3c(Cl)cc(Cl)cc3C2=O)cc1`, for which the IC90 was over 10 µM. Further, the IC50 (FFLUC_HILL_SLOPE 4.35, FFLUC_R_SQUARED 0.359, read-out: LUCIFERASE INFECTION ASSAY - IC50) is over 10 µM.
In the case of `COc1ccc2cc(C(=O)NNC(=O)c3ccccn3)c(C)nc2c1`, the IC90 is over 10 µM. Also, the IC50 under setting [1] was determined as 8.4 µM.
Consider `COc1ccc(Oc2sccc2[N+](=O)[O-])cc1`, for which the IC90 is over 13.1 µM. Under “FFLUC_HILL_SLOPE 0.766, FFLUC_R_SQUARED 0.0624, read-out: LUCIFERASE INFECTION ASSAY - IC50”, the IC50 was over 13.1 µM.
In the case of `Cc1nc(N2CCCCC2)sc1C(=O)c1ccc(SCc2cc(Cl)cc3c2OCOC3)c([N+](=O)[O-])c1`, the IC90 is over 10 µM. Besides, the IC50 under setting [1] was over 10 µM.
Consider `COc1ccc(NS(=O)(=O)c2cc(NC(=O)C3=NNC(=O)CC3)ccc2C)cc1`, for which the concentration for an effect of 90% (IC90) was over 10 µM. Also, the IC50 (HEPG2TOX_HILL_SLOPE 2.75, HEPG2TOX_R_SQUARED 0.923, PBLUC_HILL_SLOPE 2.64, PBLUC_R_SQUARED 0.0563, read-out: LUCIFERASE INFECTION ASSAY - IC50) amounted to 4.97 µM.
As for `O=C(NC1CCSc2ccccc21)c1cnn(Cc2ccccc2Cl)c1` (configuration not stated), the IC90 was over 10 µM. The IC50 (HEPG2TOX_HILL_SLOPE 8.01, HEPG2TOX_R_SQUARED 0.477, PBLUC_HILL_SLOPE 11.5, PBLUC_R_SQUARED 0.343, read-out: LUCIFERASE INFECTION ASSAY - IC50) is 9.41 µM.
As for `O=C(Nc1ncc(Cc2ccccc2)s1)c1ccc2nc[nH]c2c1`, the IC90 was over 10 µM. The IC50 (HEPG2TOX_HILL_SLOPE 3.11, HEPG2TOX_R_SQUARED 0.961, PBLUC_HILL_SLOPE 3.02, PBLUC_R_SQUARED 0.464, read-out: LUCIFERASE INFECTION ASSAY - IC50) was 5.71 µM.
Regarding `O=c1ccc(-c2nc3c4c5c(sc4ncn3n2)CCCCC5)n[nH]1`, the IC90 was 8.47 µM. Also, the half-maximal inhibitory concentration (IC50) (HEPG2TOX_HILL_SLOPE 0.965, HEPG2TOX_R_SQUARED 0.912, PBLUC_HILL_SLOPE 1.19, PBLUC_R_SQUARED 0.691, read-out: LUCIFERASE INFECTION ASSAY - IC50) stood at 1.33 µM.
Turning to `Cc1c(Cl)cnc(NC(=O)CSc2nnc(-c3ccccc3)o2)c1Cl`, the IC90 was 2.88 µM. The IC50 (FFLUC_HILL_SLOPE 2.78, FFLUC_R_SQUARED 0.409, HEPG2TOX_HILL_SLOPE 3.93, HEPG2TOX_R_SQUARED 0.284, PBLUC_HILL_SLOPE 2.91, PBLUC_R_SQUARED 0.621, read-out: LUCIFERASE INFECTION ASSAY - IC50) was 1.35 µM.
Regarding `Cn1ccc2cc(-c3cn4c(-c5ccc6ncccc6c5)cnc4cn3)ccc21`, the IC90 was found to be 3.52 µM. Under setting [1], the IC50 was 1.36 µM.
For `CC(=O)Nc1ccc(/C=C2\S/C(=N\c3cccc4ccccc34)N(Cc3ccccc3F)C2=O)cc1`, in that order: over 10 µM and 6.52 µM.
